In test [1] the target is MPT synthase from E. coli (Escherichia coli, UniProt P30748+P30749). The test can be described thus: In vitro synthesis of MPT from cPMP. The test is classed as biochemical. The following applies: FIGS. 2 and 3; for conversion of cPMP into MPT: all samples. From the text: In vitro synthesis of MPT was compared using samples of synthetic precursor Z (cPMP) and cPMP purified from E. coli. MPT synthesis also involved the use of in vitro assembled MPT synthase from E. coli. See U.S. Pat. No. 7,504,095 and “Biosynthesis and molecular biology of the molybdenum cofactor (Moco)” in Metal Ions in Biological Systems, Mendel, Ralf R. and Schwarz, Günter, Informa Plc, 2002, Vol. 39, pages 317-68.
Sequence of MPT synthase from E. coli (P30749 whole entry): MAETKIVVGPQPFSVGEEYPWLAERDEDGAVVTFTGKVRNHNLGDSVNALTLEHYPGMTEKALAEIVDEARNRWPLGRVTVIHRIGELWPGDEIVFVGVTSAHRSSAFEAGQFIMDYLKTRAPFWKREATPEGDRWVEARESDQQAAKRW
Sequence of MPT synthase from E. coli (P30748 whole entry): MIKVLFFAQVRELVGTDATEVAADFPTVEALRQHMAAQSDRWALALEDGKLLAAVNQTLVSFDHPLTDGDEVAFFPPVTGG

Test [2] concerns human apo-sulfite oxidase. In words: In vitro synthesis of Moco from cPMP (conversion into MPT, molybdate insertion, reconstitution of apo-sulfite oxidase). The following applies: FIG. 1. The test is classed as biochemical. From the text: In vitro synthesis of Moco was compared using samples of synthetic precursor Z (cPMP) and cPMP purified from E. coli. Moco synthesis also involved the use of the purified components E. coli MPT synthase, gephyrin, molybdate, ATP, and apo-sulfite oxidase. See U.S. Pat. No. 7,504,095 and “Biosynthesis and molecular biology of the molybdenum cofactor (Moco)” in Metal Ions in Biological Systems, Mendel, Ralf R. and Schwarz, Günter, Informa Plc, 2002, Vol. 39, pages 317-68. The assay is based on the conversion of cPMP into MPT, the subsequent molybdate insertion using recombinant gephyrin and ATP, and finally the reconstitution of human apo-sulfite oxidase.

On to `Nc1nc(=O)c2c([nH]1)N[C@@H]1O[C@@H]3COP(=O)(O)O[C@@H]3C(O)(O)[C@@H]1N2` [E. coli purified cPMP, reference compound], for which, in test [1] (in vitro), the “conversion of cPMP into MPT” value is “linear conversion”.
Take `Nc1nc2c(c(=O)[nH]1)N[C@@H]1[C@H](N2)O[C@@H]2COP(=O)(O)O[C@@H]2C1(O)O` [synthetic cPMP, (4aR,5aR,11aR,12aS)-1,3,2-Dioxaphosphorino[4′,5′:5,6]pyrano[3,2-g]pteridin-10(4H)-one,8-amino-4a,5a,6,9,11,11a,12,12a-octahydro-2,12,12-trihydroxy-2-oxide]: the Moco synthesis entry in test [2] (E. coli MPT synthase, gephyrin, molybdate, ATP, apo-sulfite oxidase) was “confirmed”. In addition, the “Moco conversion in comparison to E. coli purified cPMP” value in test [2] is on record as “no differences”. The MPT synthesis result in test [1] (in vitro assembled MPT synthase from E. coli, three repetitions) is on record as “confirmed”. The “conversion of cPMP into MPT” value in test [1] (in vitro) is on record as “linear conversion”. Also, the “MPT conversion compared to E. coli purified cPMP” value in test [1] (in vitro, three repetitions) is given as “no apparent differences”.

The values above are taken from US20140303367A1, “Methods for Synthesizing Molybdopterin Precursor Z Derivatives” (Alexion Pharma International Sàrl, priority 2011, published 2014).
